Data reported in patent US10155021B2, “Antimicrobial 4-oxoquinolizines” (Emergent Product Development Gaithersburg Inc., priority 2011, dated 2018).

Experiments:
A. baumannii A329 [1] = assay: MIC without and with sub-inhibitory polymyxin B (Example 4); format: cell-based, Acinetobacter baumannii; settings: Acinetobacter baumannii, A329, A. baumannii A329; without polymyxin B; 1st experiment; read-out: MIC without PB
A. baumannii A472 [2] = assay: as above; format: cell-based, Acinetobacter baumannii; settings: Acinetobacter baumannii, A472, A. baumannii A472; without polymyxin B; 1st experiment; read-out: MIC without PB
A. baumannii J2 [3] = assay: as above; format: cell-based, Acinetobacter baumannii; settings: Acinetobacter baumannii, J2, A. baumannii J2; without polymyxin B; 1st experiment; read-out: MIC without PB
[4] = tested on: resistant strains of A. baumannii and one strain of Acinetobacter sp.; assay: MIC without and with sub-inhibitory polymyxin B, whole panel / MIC ranges (Example 4; also strains not listed separately); format: cell-based; settings: Acinetobacter baumannii, read-out: MIC range without PB 01-10-2008 n = 8, without polymyxin B; 1st experiment, 8 strains
[5] = tested on: Acinetobacter sp. (H064200250); assay: Preliminary MBC without and with sub-inhibitory polymyxin B (Example 4); format: cell-based; settings: Acinetobacter, Acinetobacter spp. H064200250; without polymyxin B; preliminary MBC; 1st experiment; read-out: MBC without PB
Protocol: The plates were incubated for 18-20 hours at 37° C. The MBC was read as the lowest concentration at which colony growth was ca. 90% less than the positive control (i.e. usually where single colonies or no colonies were observed).

A. baumannii A401 [6] = assay: MIC without and with sub-inhibitory polymyxin B (Example 4); format: cell-based, Acinetobacter baumannii; settings: Acinetobacter baumannii, A401, A baumannii A 401; without polymyxin B; 1st experiment; read-out: MIC without PB
A. baumannii ATCC 19606 = assay: Preliminary MBC without and with sub-inhibitory polymyxin B (Example 4); format: cell-based, Acinetobacter baumannii; settings: Acinetobacter baumannii, ATCC19606, A. baumannii ATCC 19606; without polymyxin B; preliminary MBC; 1st experiment; read-out: MBC without PB
A. baumannii A473 [7] = assay: MIC without and with sub-inhibitory polymyxin B (Example 4); format: cell-based, Acinetobacter baumannii; settings: Acinetobacter baumannii, A473, A. baumannii A473; without polymyxin B; 1st experiment; read-out: MIC without PB
A. baumannii J2 [8] = assay: Preliminary MBC without and with sub-inhibitory polymyxin B (Example 4); format: cell-based, Acinetobacter baumannii; settings: Acinetobacter baumannii, J2, A. baumannii J2; without polymyxin B; preliminary MBC; 1st experiment; read-out: MBC without PB
[9] = tested on: Acinetobacter sp. (H064200250); assay: MIC without and with sub-inhibitory polymyxin B (Example 4); format: cell-based; settings: Acinetobacter, Acinetobacter spp. H064200250; without polymyxin B; 1st experiment; read-out: MIC without PB
A. baumannii A489 [10] = assay: Preliminary MBC without and with sub-inhibitory polymyxin B (Example 4); format: cell-based, Acinetobacter baumannii; settings: Acinetobacter baumannii, A489, A. baumannii A489, without polymyxin B, 1st experiment, read-out: MBC without PB
A. baumannii A472 [11] = assay: as above; format: cell-based, Acinetobacter baumannii; settings: Acinetobacter baumannii, A472, A. baumannii A472, without polymyxin B, 1st experiment, read-out: MBC without PB
A. baumannii A489 [12] = assay: MIC without and with sub-inhibitory polymyxin B (Example 4); format: cell-based, Acinetobacter baumannii; settings: Acinetobacter baumannii, A489, A. baumannii A489; without polymyxin B; 1st experiment; read-out: MIC without PB
A. baumannii A387 [13] = assay: Preliminary MBC without and with sub-inhibitory polymyxin B (Example 4); format: cell-based, Acinetobacter baumannii; settings: Acinetobacter baumannii, A387, A. baumannii A387, without polymyxin B, 1st experiment, read-out: MBC without PB
A. baumannii A401 [14] = assay: as above; format: cell-based, Acinetobacter baumannii; settings: Acinetobacter baumannii, A401, A baumannii A 401; without polymyxin B; preliminary MBC; 1st experiment; read-out: MBC without PB
A. baumannii A387 [15] = assay: MIC without and with sub-inhibitory polymyxin B (Example 4); format: cell-based, Acinetobacter baumannii; settings: Acinetobacter baumannii, A387, A. baumannii A387; without polymyxin B; 1st experiment; read-out: MIC without PB
A. baumannii A329 [16] = assay: Preliminary MBC without and with sub-inhibitory polymyxin B (Example 4); format: cell-based, Acinetobacter baumannii; settings: Acinetobacter baumannii, A329, A. baumannii A329, without polymyxin B, 1st experiment, read-out: MBC without PB
A. baumannii A473 [17] = assay: as above; format: cell-based, Acinetobacter baumannii; settings: Acinetobacter baumannii, A473, A. baumannii A473, without polymyxin B, 1st experiment, read-out: MBC without PB

Cc1c(-c2ccc(N)c(F)c2)c(F)cn2c(=O)c(C(=O)O)cc(C3CC3)c12 [Compound 17, 8-(3-fluoro-4-amino-phenyl)-1-cyclopropyl-7-fluoro-9-methyl-4-oxo-quinolizine-3-carboxylic acid]
8 µg/mL: MIC (A. baumannii A329 [1]) | MBC [5] | MIC [9] | MIC (A. baumannii A489 [12]) | MBC (A. baumannii A401 [14]) | MBC (A. baumannii A329 [16])
1 to 16 µg/mL: MIC [4]
4 µg/mL: MIC (A. baumannii A472 [2]) | MIC (A. baumannii J2 [3]) | MIC (A. baumannii A401 [6]) | MIC (A. baumannii A473 [7]) | MBC (A. baumannii J2 [8]) | MBC (A. baumannii A489 [10]) | MBC (A. baumannii A472 [11]) | MBC (A. baumannii A473 [17])
2 µg/mL: MBC (A. baumannii A387 [13])
1 µg/mL: MBC (A. baumannii ATCC 19606) | MIC (A. baumannii A387 [15])
